Data: patent publication US20050152857A1, “Method and preparation for reducing sunburn cell formation in skin” (PCR Technology Holdings, LC, priority 2004, published 2005)

Assays:
[1] = test system: sensitivity of skin to UV light; conditions: cited from earlier work
[2] = test system: sunburn cells in human skin; assay: 2-week human sun burn cell assay study with glycolic acid compositions (Formulas 4-5, 1.5 MED solar simulator); assay type: in vivo; conditions: compared with normal, untreated skin, UV-exposed
Description: The idebenone-containing Formula 4 and the placebo Formula 5 of Example 3 were applied to human skin in a 2-week human sun burn cell assay study.
The panel composition was six different healthy adult volunteers between the ages of 18 and 53. All were in excellent health, and without any significant internal or dermatological diseases. The subjects were carefully screened to insure they were not taking any medications.
The subjects were given detailed instructions to avoid any direct exposure to sunlight and to minimize any incidental exposure to their backs for the entire duration of the study. […]
The light source used was a 150 watt xenon arc solar simulator equipped with a UV reflecting diachronic mirror and a 1 mm thick Schott WG-320 filter to produce simulation of the solar spectrum. […] Total irradiance at skin level was measured with a calibrated Eppley Thermopile and the UVB component was monitored with a UVB radiometer (International Light Inc, Newburyport, Mass.). […]
Two days prior to the end of the study, the MED (minimal erythema dose) for each subject was determined by exposing several normal untreated skin sites over the midback area to a series of exposures in 25% dose increments from the solar simulator. […] The MED was recorded in the appropriate case record form. […]

In the case of O=C(O)CO [glycolic acid], the “sensitivity of skin to UV light, sunburn cell induction” value ([1]; 10% glycolic acid (pH 3.5) once daily, 6 days per week, 4 weeks, 1.5 MED, 29 Caucasian subjects) is listed as “enhanced sensitivity to UV light, including increased sunburn cell induction” and the “duration of photosensitivity after terminating treatments” value ([1]; 10% glycolic acid (pH 3.5), after 4 weeks of treatment) is listed as “reversed within a week of terminating treatments”.
With COC1=C(OC)C(=O)C(CCCCCCCCCCO)=C(C)C1=O [idebenone, 6-(10-hydroxydecyl)-2,3-dimethoxy-5-methyl-1,4-benzoquinone] the “prevention of the increase in sun sensitivity / sunburn cell formation produced by 10 wt. % glycolic acid” value [2] was “prevented the increase in formation of sunburn cells”.
